From patent US9604973B2, “Anti-cancer polyketide compounds” (priority 2012, dated 2017)
“Also recorded” adds a separate entry of the source.

Tests used:
HCT-116 cell line = assay: MTT cell proliferation assay; type: cell-based
Text: Structure Activity Relationships (SAR) studies for 1SS, […], 1RS, and […]. It has been reported that ablation of C3, C6 and C7 substituents is detrimental to activity. […] (See FIG. 4). Additional activity was also observed when C17 was left in its natural R configuration.

[1] = test system: normal B lymphocytes from healthy donor; assay: Flow cytometry, % specific induced apoptosis in normal B lymphocytes; type: cell-based, human; details: 48 hours
Experimental: FIG. 20A-20C: FD-895 and PLAD induce apoptosis in CLL cells but not in normal lymphocytes with a TP53 independent activity: Primary leukemia B cells from CLL (FIG. 20A) patient with del (17p) and Tp53 mutation, (FIG. 20B) patient with wild type p53 and sensitive to F-Ara-A and (FIG. 20C) normal lymphocytes from healthy donor were incubated with FD-895, PLAD and F-Ara-A (0, 10, 100, 1000 10,000 nM) for 48 hours.
(§1) FIG. 21: FD-895 and PLAD induce apoptosis in CLL cells not ONLY independently of Tp53 but also independently of SF3B1 mutational status: Primary leukemia B cells from CLL patient with SF3B1 wild, SF3B1 mutation, 17p DEL and normal B and T lymphocytes from healthy donor were incubated with FD-895 and PLAD with 100 nM for 48 hours. After incubation, the samples were harvested and % SIA was measured by flow cytometry as described above. […] Each dots represents number of CLL patient sample and normal B or T cells.
(§2) Normal B cells were purified from buffy coats of healthy volunteers, obtained from San Diego blood bank. Positive isolation with Dynabeads® CD19 pan B and DETACHaBEAD CD19 (Invitrogen Life Technologies, USA) were used to achieve more than 95% purity by flow cytometry analysis.
(§3) Apoptotic and viable cells were discriminated via flow cytometry of cells stained with 3,3′ dihexyloxacarbocyanine iodide (DiOC6) (Molecular Probes, Eugene, Oreg., USA) and propidium iodine (Sigma, St Louis, Mo., USA), as described.^3 Using this method viable cells exclude PI and stain brightly positive for DiOC6.

[2] = test system: normal T lymphocytes from healthy donor; assay: Flow cytometry, % specific induced apoptosis in normal T lymphocytes; type: cell-based, human; details: normal T cells from healthy donors, 100 nM, 48 hours
Experimental: as §1, §3

GAPDH = assay: RT-PCR of spliced and unspliced mRNA (intron retention) in CLL cells, housekeeping gene; type: cell-based, human; details: for intron retention/splicing inhibition of GAPDH: 100 nM, 15 min to 4 hours; for splicing inhibition of housekeeping gene GAPDH: 4 hours, same concentrations
Experimental: FIG. 23: FD-895 and PLAD induced inhibition of splicing in CLL: RT-PCR for analysis of spliced and unspliced mRNAs. CLL cells treated with FD-895, PLAD (10, 100 nM), chemotherapeutic agent like bendamustine (33, 100 μM) and F-Ara-A (3, 10, 33 μM) for 4 hours. RT-PCR for DNAJB1 was performed with primers spanning two exons; products were analyzed on ethidium bromide-stained agarose gels (2%) to visualize the correct size of the unspliced mRNAs. […] The exon structure of DNAJB1 gene is indicated. G, human genomic DNA was used as a control; U, unspliced mRNA; S, spliced mRNA.
CLL cells were treated with 10 and 100 nM of FD-895 and PLAD, 33 and 100 μM of bendamustine and 3, 10, and 33 μM of F-Ara-A for 4 h. Normal B and CLL cells were treated with 100 nM of FD-895 and PLAD and 10 μM of F-Ara-A for 15 minutes, 30 minutes, 1, 2 and 4 h. Total RNA was extracted using mirVana™ miRNA isolation kit (Ambion Life Technology, USA). After DNase treatment, 200 ng total RNA was reverse-transcribed using a SuperScript™ III first-strand synthesis system (Invitrogen). PCR was performed on 10 ng of the obtained cDNA (or human genomic DNA as a control) in 25 μl of reaction mixture containing Plantinum® PCR SuperMix High-fidelity (Invitrogen Life Technology, USA), and 0.1 μM of each primer of the appropriate pair.
PCR conditions were 94° C. for 3 min; 35 cycles of 94° C. for 30 s, 60° C. for 30 s, and 72° C. for 1 min; followed by 72° C. for 5 min. PCR products were separated on a 2% agarose gel and stained with ethidium bromide.

DNAJB1 [3] = assay: Quantitative RT-PCR of unspliced mRNA in CLL cells; type: cell-based, human; details: for unspliced mRNA of DNAJB1 over time: CLL cells, FD-895, PLAD 100 nM, F-Ara-A 10 μM, 15 min, 1 and 4 hours; for unspliced mRNA of DNAJB1: CLL, 10 nM, 4 hours
Experimental: FIG. 24: Time-dependent increase of unspliced mRNA by FD-895 and PLAD in CLL: CLL cells were treated with 100 nM of FD-895 and PLAD and 10 μM of F-Ara-A for 15 min, 1 and 4 hours. Quantitative RT-PCR using primers specific for each intron quantified unspliced mRNA for DNAJB1. GAPDH was used for normalization. […] Error bars indicate S.D.
(§4) Quantitative RT-PCR using primers specific for each intron quantified unspliced mRNA for DNAJB1 (FIG. 25A) and RIOK3 (FIG. 25B). GAPDH was used for normalization. […] Error bars indicate S.D.
(§5) CLL cells were treated with 100 nM of FD-895 and PLAD and 10 μM of F-Ara-A for 15 minutes, 1 and 4 h. Normal B and CLL cells were treated with 10, 100, and 1000 nM of FD-895 and PLAD and 10 μM of F-Ara-A for 4 h.
(§6) Extraction of total RNA and cDNA synthesis were performed as described earlier. Unspliced mRNA was quantified using a 7900HT fast Real Time PCR System (Applied Biosystems). The amounts of unspliced mRNA of DNAJB1, and RIOK3 were determined by SYBR green (Power SYBR Green PCR Master Mix, Applied Biosystems) real-time quantitative RT-PCR using specific primers designed for the intron of each gene (see additional information section at the end).
(§7) PCR using 0.2 μM of each primer was performed on 20 ng of the obtained cDNA. PCR conditions were 50° C. for 2 min; 95° C. for 10 min; 35 cycles of 94° C. for 20 s, 55° C. for 20 s, followed by 72° C. for 30 s. The mRNA levels were calculated using 2^−ΔΔCT method.^4 GAPDH was used as a control for normalization.

RIOK3 [4] = assay: Quantitative RT-PCR of unspliced mRNA in CLL cells; type: cell-based, human; details: 10 nM, 4 hours
Experimental: as §4, §5, §6, §7

DNAJB1 [5] = assay: Quantitative RT-PCR of unspliced mRNA in normal B cells; type: cell-based, human; details: 4 hours
Experimental: as §4, §2, §5, §6, §7

RIOK3 [6] = assay: as above; type: cell-based, human; details: 4 hours
Experimental: as §4, §2, §5, §6, §7

[7] = B cells from healthy donors, 0-10,000 nM
[8] = normal B cells from healthy donors, 100 nM

Compound	IC50 (HCT-116 cell line; HCT-116 cell line, MTT) [nM]	IC50 (HCT-116 cell line; HCT-116 cell line, MTT, listed as 1RR) [nM]	IC50 (HCT-116 cell line; background statement, cell line not given) [nM]	apoptosis (% SIA) [1, 7]	apoptosis (% SIA) [1, 8]	apoptosis (% SIA) [2]	intron retention/splicing inhibition of GAPDH (GAPDH)	splicing inhibition of housekeeping gene GAPDH (GAPDH)	unspliced mRNA of DNAJB1 over time (DNAJB1 [3])	unspliced mRNA of DNAJB1 (DNAJB1 [3])	unspliced mRNA of RIOK3 (RIOK3 [4])	unspliced mRNA of DNAJB1 (DNAJB1 [5])	unspliced mRNA of RIOK3 (RIOK3 [6])
CCC(OC)C(C)C1OC1C(O)C(C)/C=C/C=C(\C)C1OC(=O)CC(O)CCC(C)(O)C(OC(C)=O)/C=C/C1C (centres unmarked) [FD-895]	23.5 ± 0.2	24.2 ± 0.9	24.2 ± 0.9	did not induce significant apoptosis	did not induce significant cell death; also recorded: did not show significant apoptosis	did not induce significant cell death; also recorded: did not show significant apoptosis	no intron retention/splicing inhibition	Neither FD-895, PLAD nor chemotherapy agents showed splicing inhibition	gradual increase in unspliced mRNA	clear increase in unspliced mRNA	clear increase in unspliced mRNA	did not show significant increase in unspliced mRNA	did not show significant increase in unspliced mRNA
Pladienolide B	–	–	–	did not induce significant apoptosis	did not induce significant cell death; also recorded: did not show significant apoptosis	did not induce significant cell death; also recorded: did not show significant apoptosis	no intron retention/splicing inhibition	Neither FD-895, PLAD nor chemotherapy agents showed splicing inhibition	gradual increase in unspliced mRNA	clear increase in unspliced mRNA	clear increase in unspliced mRNA	did not show significant increase in unspliced mRNA	did not show significant increase in unspliced mRNA
